Experimental data taken from US5100895A, “Heterocyclic compounds and their preparation and use” (Novo Nordisk A/S, priority 1989, dated 1992).

Tested on: benzodiazepine receptors
Experiment: in vivo displacement of 3H-flunitrazepam specific binding to benzodiazepine receptors in a living brain
Conditions: dose which causes specific binding of 3H-flunitrazepam to benzodiazepine receptors in a living brain to be reduced to 50% of the control value
Source text: The pharmaceutical properties of the compounds of the invention can be illustrated by determining their capability for displacing radioactive labelled flunitrazepam from benzodiazepine receptors.
The displacement activity of the compounds of the invention may be found by determining the ED50 value. The ED50 value represents the dose (mg/kg) of a test substance which causes the specific binding of ^3 H-flunitrazepam to benzodiazepine receptors in a living brain to be reduced to 50% of the control value.
Such an in vivo test is carried out as described in U.S. Pat. No. 4,774,245.

Compound | ED50
Brc1cccc2c1C1=NCCN1c1c(-c3noc(C4CC4)n3)ncn1-2 [Compound 7, 12-Bromo-5-(5-cyclopropyl-1,2,4-oxadiazol-3-yl)-2,3-dihydroiimidazo[1,5-a:1',2'-c]quinazoline] | 0.92 mg/kg
Clc1cccc2c1C1=NCCN1c1c(-c3noc(C4CC4)n3)ncn1-2 [Compound 6, 12-Chloro-5-(5-cyclopropyl-1,2,4-oxadiazol-3-yl)-2,3-dihydrodiimidazo[1,5-a:1',2'-c]quinazoline] | 0.23 mg/kg
Fc1ccc2c(c1)C1=NCCN1c1c(-c3noc(C4CC4)n3)ncn1-2 [Compound 21, 5-(5-Cyclopropyl-1,2,4-oxadiazol-3-yl)-11-fluoro-2,3-dihydrodiimidazo[1,5-a:1',2'-c]quinazoline] | 0.26 mg/kg
FC(F)(F)c1cccc2c1C1=NCCN1c1c(-c3noc(C4CC4)n3)ncn1-2 [Compound 12, 5-(5-Cyclopropyl-1,2,4-oxadiazol-3-yl)-2,3-dihydro-12-trifluoromethyldiimidazo[1,5-a:1',2'-c]quinazoline] | 0.08 mg/kg
FC(F)(F)c1cccc2c1C1=NCCN1c1c(-c3nc(C4CC4)no3)ncn1-2 [Compound 19, 5-(3-Cyclopropyl-1,2,4-oxadiazol-5-yl)-2,3-dihydro-12-trifluoromethyldiimidazo[1,5-a:1',2'-c]quinazoline] | 0.08 mg/kg
Brc1cccc2c1C1=NCCN1c1c(-c3nc(C4CC4)no3)ncn1-2 [Compound 8, 12-Bromo-5-(3-cyclopropyl-1,2,4-oxadiazol-5-yl)-2,3-dihydrodiimidazo[1,5-a:1',2'-c]quinazoline] | 1.7 mg/kg
c1ccc2c(c1)C1=NCCN1c1c(-c3noc(C4CC4)n3)ncn1-2 [Compound 1, 5-(5-cyclopropyl-1,2,4-oxadiazol-3-yl)-2,3-dihydrodiimidazol[1,5-a:1',2'-c]quinazoline] | 0.47 mg/kg
FC(F)(F)c1cccc2c1c1nccn1c1c(-c3noc(C4CC4)n3)ncn21 [Compound 28, 5-(5-Cyclopropyl-1,2,4-oxadiazol-3-yl)-12-trifluoromethyldiimidazo[1,5-a:1',2'-c]quinazoline] | 0.12 mg/kg
